Assays:
[1] = system: A2780 human ovarian cancer cells; test: Antiproliferative activity (SRB assay), A2780; assay type: cell-based; settings: 24 h drug exposure, 72 h recovery in drug-free medium
Protocol: (§1) A2780 and A2780Cis human ovarian, A549 human lung, HEPG 2 human hepatocellular, MCF 7 human breast cancer, and MRC 5 human normal fibroblast cell lines were grown in Roswell Park Memorial Institute medium (RPMI-1640) supplemented with 10% of fetal calf serum, 1% of 2 mM glutamine, and 1% penicillin/streptomycin. All cells were grown as adherent monolayers at 310 K with 5% CO2 humidified, and all cells were passaged at ca. 80% confluency.
(§2) The antiproliferative activity and cytotoxicity of complexes 1–4 were determined in five different cancer cell lines and one human normal cell line. In general, about 5000 cells per well were seeded in 96-well plates. The plates were preincubated with drug-free medium at 310 K for 48 h before adding the tested compounds (various concentrations). Stock solutions of complexes 1–4 were prepared in DMSO/cell culture medium, and exact complex concentrations were determined by ICP-OES. […] A further cell recovery for 72 h was allowed in drug-free medium at 310 K. The sulforhodamine B (SRB) assay was used to determine cell viability. IC50 values, as the concentration that causes 50% cell death, were determined as duplicates of triplicates in two independent sets of experiments, and their standard deviations were calculated.

[2] = system: A2780Cis cisplatin-resistant ovarian cancer cells; test: Antiproliferative activity (SRB assay), A2780Cis; assay type: cell-based, human; settings: for IC50: 24 h drug exposure, 72 h recovery in drug-free medium; for RI (resistance index): ratio of IC50 A2780Cis to parental A2780
Protocol: as §1, §2

[3] = system: A549 human lung cancer cells; test: Antiproliferative activity (SRB assay), A549; assay type: cell-based; settings: 24 h drug exposure, 72 h recovery in drug-free medium
Protocol: as §1, §2

[4] = system: HEPG2 human hepatocellular cancer cells; test: Antiproliferative activity (SRB assay), HEPG2; assay type: cell-based; settings: 24 h drug exposure, 72 h recovery in drug-free medium
Protocol: as §1, §2

[5] = system: MCF7 human breast cancer cells; test: Antiproliferative activity (SRB assay), MCF7; assay type: cell-based; settings: 24 h drug exposure, 72 h recovery in drug-free medium; read-out: IC50 MCF 7
Protocol: as §1, §2

[6] = system: MRC5 normal human lung fibroblast cells; test: Cytotoxicity (SRB assay), MRC5 normal fibroblasts; assay type: cell-based; settings: 24 h drug exposure, 72 h recovery, read-out: IC50 MRC 5
Protocol: as §1, §2

[7] = system: double-helical calf thymus DNA (ct-DNA); test: Binding to calf thymus DNA (FAAS after dialysis); settings: ri 0.1 and 0.5, 10 mM NaClO4, 310 K, 24 h
Protocol: The reaction was terminated after 24 h of incubation, and samples were exhaustively dialyzed against water. The ruthenium content in these samples was determined by flameless atomic absorption spectrometry (FAAS) and the concentration of DNA by absorption spectrophotometry.

[8] = system: single-stranded 50-mer oligonucleotide; test: Binding to single-stranded 50-mer oligonucleotide (FAAS); settings: ri = 0.5, 0.05 M NaClO4, 310 K, 24 h, dark
Protocol: (§3) After 24 h the reaction was stopped, and samples were exhaustively dialyzed against water. The ruthenium contents in these samples were determined by FAAS, and the concentrations of DNA were determined by absorption spectroscopy.

[9] = system: double-stranded 50-mer oligonucleotide; test: Binding to double-stranded 50-mer oligonucleotide (FAAS); settings: ri = 0.5, 0.05 M NaClO4, 310 K, 24 h, dark
Protocol: as §3

[10] = set-up: method as in PMID 16604356; settings: cited from earlier work
[11] = system: A2780 human ovarian cancer cells; test: ROS/superoxide induction (flow cytometry); assay type: cell-based; settings: IC50 concentration, 24 h; pyocyanin 30 min
Protocol: The total level of oxidative stress, including H2O2, peroxy and hydroxyl radical, peroxynitrite, NO, and superoxide production, was monitored using the green channel FL1 and orange channel FL2, respectively.
Positive controls were obtained by exposure of cells to pyocyanin for 30 min. Data were processed using Flowjo software. At all times, samples were kept under dark conditions to avoid light-induced ROS production.

[12] = system: A2780 human ovarian cancer cells; test: Cell viability on coincubation with sodium formate (SRB); settings: 0.5, 1 and 2 mM sodium formate
Protocol: Experiments included three sets of controls: the first, negative controls, consisted of untreated cells (only vehicle exposure), a second set was exposed to three concentrations of sodium formate (0.5, 1, and 2 mM), and a third set was exposed to cisplatin as positive controls. […] Following 72 h of recovery time in drug-free medium, cell survival was evaluated using the Sulforhodamine B colorimetric assay.
Cell viability assays of complexes 1–4 were carried out with A2780 ovarian cancer cells with sodium formate. […] Drug stock solutions (ca. 100 μM) were prepared as described for in vitro growth inhibition assays and then further diluted with media until working concentrations were achieved. Separately, a stock solution of sodium formate was prepared in saline. The complex and formate solutions were added to each well independently within 5 min of each other. All other experimental conditions were kept unchanged (drug exposure, cell recovery time, and end point assay used). The standard deviations were calculated.

[13] = NAD+ to NADH, formate hydride donor; Ru/NAD+/formate 1/4/25, DMSO-d6/D2O, pH* 7.2, 310 K
Protocol: (§4) Catalytic transfer hydrogenation reactions of complexes 1–4 and sodium formate as hydride donor for conversion of nicotinamide adenine dinucleotide (NAD^+) to NADH were studied in aqueous media by UV–visible spectroscopy by following the absorbance at 340 nm for NADH and by ^1H NMR spectroscopy (20% DMSO-d6 in D2O) by monitoring peaks corresponding to 1,4-NADH.
Complexes 1–4 were dissolved in DMSO-d6/D2O (3/2 v/v; 1.4 mM) in a glass vial. Aliquots (200 μL) of solutions of sodium formate (35 mM) and NAD^+ (5.6 mM) in D2O were added, and the pH* was adjusted to 7.2 ± 0.1, for a final volume of 0.64 mL (Ru complex 0.44 mM, NAD^+ 1.75 mM, NaHCO2 10.94 mM; molar ratio 1/4/25). The solution was transferred to a 5 mm NMR tube, and a ^1H NMR spectrum was recorded at 310 K every 162 s until the completion of the reaction. Molar ratios of NAD^+ and NADH were determined by integrating the peaks corresponding to resonances for NAD^+ (9.33 ppm) and 1,4-NADH (6.96 ppm). The turnover number (TON) for the reaction was calculated [drawing 1] where In is the integral of the signal at n ppm and [NAD^+] is the concentration of NAD^+ at the start of the reaction.

[14] = NAD+ to NADH, formate hydride donor; Ru/NAD+/formate 1/6/1200, pH 7.2, 310 K, 340 nm
Protocol: as §4
Complexes 1–4 were dissolved in DMSO/H2O (1/9 v/v) (84 μM) in a glass vial. Solutions of sodium formate (102 mM) and NAD^+ in H2O (510 μM) were also prepared and then mixed at 310 K. In a typical experiment, an aliquot of 330 μL from each solution was placed in a 1 mL cuvette and the pH adjusted to 7.2 before the sample was introduced into the UV–vis instrument, giving a total volume of 1 mL (final concentrations were Ru complex 28 μM, NAD^+ 170 μM, NaHCO2 34 mM, molar ratio 1/6/1200). UV spectra were recorded every 5 min until completion of the reaction. The spectrum was monitored for an increase in the band at 340 nm, which corresponds to the absorption of NADH.

[15] = system: A2780 human ovarian cancer cells; settings: 24 h exposure at equipotent IC50 concentration, no recovery
Protocol: (§5) ICP-MS and ICP-OES analyses were carried out on Agilent Technologies 7500 series and PerkinElmer Optima 5300 DV series instruments, respectively. The double-deionized (DDW) water used for both analyses was from a Millipore Milli-Q water purification system and a USF Elga UHQ water deionizer. The Ruthenium Specpure plasma standard (ruthenium chloride, 1004 ± 5 μg/mL in 10% v/v hydrochloric acid) was diluted with 3.6% v/v HNO3, and calibrants were prepared freshly at concentrations of 0.1–500 ppb for ICP-MS and 50–700 ppb for ICP-OES. In particular, calibration standards for ICP-OES analysis were adjusted with standard sodium chloride (TraceSELECT) solution to match the sample salinity. The instrument was set to detect ^101Ru with typical detection using no-gas mode for ICP-MS analysis.
(§6) Cellular Ru accumulations for complexes 2 and 4 were determined on A2780 ovarian and A2780 cisplatin-resistant ovarian cancer cells. Approximately 2 × 10^6 cells were seeded in a six-well plate and preincubated in drug-free medium at 310 K for 24 h, and stock solutions of both complexes were prepared in a mixture of DMSO/cell culture medium and their accurate Ru concentrations were determined by ICP-OES. […] After this time, cells were treated with trypsin and counted and cell pellets were collected. […] Statistical significances of variations were determined using Welch’s t-tests.

A2780Cis cells = settings: 24 h exposure at equipotent IC50 concentration, no recovery
Protocol: as §5, §6

Compound | IC50 [1] | IC50 [2] | RI (resistance index) [2] | IC50 [3] | IC50 [4] | IC50 [5] | IC50 [6] | TOF (NMR) [13] | TOF (UV–vis) [14] | other results
[NH2][Pt]([NH2])([Cl])[Cl] [CDDP, cisplatin, reference compound] | 1.2 ± 0.02 µM | 13.4 ± 0.3 µM | 11 | 3.1 ± 0.1 µM | 5.7 ± 0.9 µM | 7.3 ± 0.2 µM | 12.8 ± 0.3 µM | – | – | selectivity index between MRC5 normal cells and A2780Cis cancer cells ([2]; MRC5 vs A2780Cis): 0.95
Cc1ccc(C(C)C)cc1.Cc1ccc(S(=O)(=O)[N](CCN)[Ru][Cl])cc1 [JS2, [(η^6-p-cym)Ru(TsEn)Cl]] | – | – | – | – | – | – | – | – | – | ruthenium bound to ct-DNA [7]: No detectable amount of ruthenium; Ru bound to single-stranded oligonucleotide [8]: No Ru associated; Ru bound to double-stranded oligonucleotide [9]: No Ru associated; TOF for TH reduction of NAD+ [10]: 2.88 h^–1
Cn1c2cccc(=O)c-2nc2ccccc21 [Pyocyanin, pyocyanin] | – | – | – | – | – | – | – | – | – | Cell Populations FL-1+/FL-2+ [11]: 96.1 ± 0.8%; Cell Populations FL-1+/FL-2- (total oxidative stress) [11]: 1.5 ± 0.6%; Cell Populations FL-1-/FL-2+ (superoxide) [11]: 2.5 ± 0.9%; Cell Populations FL-1-/FL-2- [11]: 0.45 ± 0.08%
F[P-](F)(F)(F)(F)F.NCCN.[Cl][Ru+].c1ccc(-c2ccccc2)cc1 [RM175, [(η^6-biph)Ru(en)Cl]PF6] | – | – | – | – | – | – | – | – | – | TOF for TH reduction of NAD+ [10]: 0.18 h^–1
O=C[O-].[Na+] [sodium formate] | – | – | – | – | – | – | – | – | – | toxicity of formate alone [12]: not toxic
[Ru(η^6-Ph(CH2)3-ethylenediamine-N-Ms)Cl] [Complex 1] | 23 ± 1 µM | > 50 µM | >2 | 33 ± 1 µM | 27.8 ± 0.1 µM | 28.9 ± 0.9 µM | 31 ± 1 µM | 3.79 ± 0.05 h^–1 | 5.8 ± 0.2 h^–1 | –
[Ru(η^6-Ph(CH2)3-ethylenediamine-N-Nb)Cl] [Complex 4] | 16 ± 0.3 µM | > 50 µM | >3 | 30 ± 1 µM | 23 ± 4 µM | 9.9 ± 0.5 µM | 26 ± 1 µM | 8.5 ± 0.2 h^–1 | 9.9 ± 0.2 h^–1 | cellular Ru content [15]: 150 ± 38 ng per million cells; cellular Ru content (A2780Cis cells): 241 ± 10 ng per million cells
[Ru(η^6-Ph(CH2)3-ethylenediamine-N-Tf)Cl] [Complex 3] | > 50 µM | > 50 µM | – | 31 ± 2 µM | > 50 µM | 24 ± 3 µM | 28 ± 3 µM | 8.9 ± 0.3 h^–1 | 8.69 ± 0.07 h^–1 | –

From article PMC5989272, “Transfer Hydrogenation and Antiproliferative Activity of Tethered Half-Sandwich Organoruthenium Catalysts” (Organometallics, 2018)
